Target: T1, IL-17A (Homo sapiens, UniProt Q16552)
T1 sequence (Q16552 24-155): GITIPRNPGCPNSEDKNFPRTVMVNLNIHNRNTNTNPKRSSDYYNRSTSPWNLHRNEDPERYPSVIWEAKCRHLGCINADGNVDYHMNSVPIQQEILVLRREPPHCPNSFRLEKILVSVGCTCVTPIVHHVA
Assay: Inhibition of IL-17A induced IL-6 release from dermal fibroblast cell line (HDF cell line assay)
Assay type: cell-based
Details: HDF cells stimulated with IL-17A 50 pM + TNFα 25 pM, IL-6 release by HTRF
Text: Inhibition of IL-17A Induced IL-6 Release from Dermal Fibroblast Cell Line The purpose of this assay is to test the neutralising ability to IL-17 proteins, in a human primary cell system. Stimulation of normal human dermal fibroblasts (HDF) with IL-17 alone produces only a very weak signal but in combination with certain other cytokines, such as TNFα, a synergistic effect can be seen in the production of inflammatory cytokines, i.e. IL-6. HDFs were stimulated with IL-17A (50 pM) in combination with TNF-α (25 pM). The resultant IL-6 response was then measured using a homogenous time-resolved FRET kit from Cisbio. The kit utilises two monoclonal antibodies, one labelled with Eu-Cryptate (Donor) and the second with d2 or XL665 (Acceptor). The intensity of the signal is proportional to the concentration of IL-6 present in the sample (Ratio is calculated by 665/620×104). The ability of a compound to inhibit IL-17 induced IL-6 release from human dermal fibroblasts is measured in this assay. […] The cells were re-suspended in complete media (5 mL) counted and adjusted to a concentration of 3.125×10^4 cells/mL before being added to the 384 well assay plate (Corning #3701) at 40 μL per well. […] The mixture was incubated at room temperature for 3 h with gentle shaking (<400 rpm) before being read on a Synergy Neo 2 plate reader (Excitation: 330 nm; Emission: […]).

| pIC50 (listed as 1 (Peak 1)) | pIC50 (listed as 2 (Peak 2)) | SMILES |
| --- | --- | --- |
| 7.7 | – | Cc1nonc1C(=O)N[C@H](c1cn2ncc(C3(C(=O)NCC(C)(F)F)CC(C)(O)C3)nc2n1)C1CCC(F)(F)CC1 (single isomer, unassigned) [Example 1] |
| – | 8.4 | Cc1nonc1C(=O)N[C@H](c1cn2ncc(C3(C(=O)NCC(C)(F)F)CC(C)(O)C3)nc2n1)C1CCC(F)(F)CC1 (single isomer, unassigned) [Example 2] |

Source: US20260285867A1, “IMIDAZOTRIAZINE DERIVATIVES AS IL-17 MODULATORS” (UCB BIOPHARMA SRL, priority 2023, published 2026)
